Reference: patent US8178727B2, “Bis(arylmethylidene)acetone compound, anti-cancer agent, carcinogenesis-preventive agent, inhibitor of expression of Ki-Ras, ErbB2, c-Myc and Cycline D1, β-catenin-degrading agent, and p53 expression enhancer” (National University Corporation Tohoku University, priority 2005, dated 2012)

Assays:
DLD-1 cells [1] = assay: Cell growth inhibition (Cell Counting Kit 8, Wst-8), 96 h exposure; format: cell-based; details: Homo sapiens, DLD-1 colon cancer cells
Method: (§1) The inhibitory efficacy of bis(arylmethylidene)-acetones on the development and growth of malignant tumor cells was examined. Curcumin and bis(arylmethylidene)-acetone compounds were dissolved in DMSO to obtain 50 mM compound solutions for storage. Sixteen human cancer cell lines (HCT116, DLD-1, SW620. LK87, PC3, MCF7, PK9, HuCCT-1, SH10TC, GCIY, G361, 8505c, HepG2, A431, ACHN, OVK18) were obtained from the Medical Cellular Resources Center of the Institute of Development, Aging, and Cancer at Tohoku University, Japan. These cells were cultured at 37° C. under 5% CO2 conditions using as a culture medium RPMI1640 (Sigma Aldrich) supplemented with 10% fetal bovine serum and kanamycin (Wako Pure Chemical Industries: final concentration, […]).
(§2) Three human colon-cancer cell lines (DLD-1, HCT116, SW620) were used in screening for cell growth inhibitory efficacy. The test compounds (bis(arylmethylidene)-acetones) were added to the culture media at the target concentrations, and exposure to the compounds was then continued for 96 hours in order to investigate not only acute cell damages but also effects on the cells, involving intracellular metabolic responses and others. The cell growth inhibitory efficacy was then evaluated with Cell Counting Kit 8 (Wst-8 Test, Dojindo Laboratories, Japan). In this analysis method, tetrazolium salt Wst-8 is degraded by reduced form nicotinamide adenine dinucleotide (nicotinamide adenine dinucleotide H; NADH). The activity of NADH is maintained only inside viable cells, and Wst-8 becomes colored upon degradation. The optical absorbance at 450 nm is measured, whereby the number of viable cells can be indirectly estimated.
(§3) Each cell line was placed on a 96-well microtiter plate at a cell density of 2500 to 5000 cells/100 μL/well in accordance with the growth rate of the cell line. After cell cultivation for 24 hours, […] medium containing each compound was added. The final concentration of each test compound is 0, 0.1, 0.25, 0.5, 1, 2.5, 5, 10, 25, 50, and 100 μM (11 levels). The maximum final concentration of DMSO used as a solvent was 1%. After culturing for 96 hours, the medium was aspirated away, followed by washing with PBS. Next, 100 μL of a medium containing a solution of Cell Counting Kit 8 at 1/10 (v/v) was added. Culturing was then continued for one hour. Thereafter, each optical absorbance at 450 nm (620 nm background) was measured with an MPR-A4i microplate reader (Tosoh, Japan). A curve of the inhibition of cell growth was constructed using the measured optical absorbances.

HCT116 cells = assay: as above; format: cell-based; details: Homo sapiens, HCT-116, HCT116 colon cancer cells
Method: as §1, §2, §3

SW620 cells = assay: as above; format: cell-based; details: Homo sapiens, SW-620, SW620 colon cancer cells
Method: as §1, §2, §3

colon-cancer cells = assay: Growth inhibition compared with anti-cancer agents 5-FU, CPT11, CDDP (FIG. 6); format: cell-based, human
Method: as §1, §3
Stored solutions of three anti-cancer agents: 5-FU, CDDP, and CPT11, prepared beforehand (1 mM), were suitably diluted prior to use, and also added to culture media.

DLD-1 cells [2] = assay: Cell cycle / apoptosis-inducing activity by flow cytometry (FACScan); format: cell-based, human
Method: The activity of test compounds in cell cycle (apoptosis-inducing activity) was analyzed with a flow cytometer (FACScan). […] The cells attached to the plates are then harvested together with the cells suspended in the medium, centrifuged, and pelleted, followed by removal of supernatants. The collected cells were washed twice with PBS, then fixed with 70% ethanol for 30 minutes or more at 4° C., then washed with PBS once more, suspended in PBS supplemented with RNaseA (final concentration: 50 μg/mL; Qiagen), and incubated for 20 minutes at 37° C. Centrifugation was performed, and the supernatant was removed, after which the nuclei were stained using a solution of propidium iodide ([…]). Filtration was then performed using a nylon mesh having a pore size of 50 μm, and a DNA histogram was analyzed with a FACScan flow cytometer ([…]). The cellular fractions of subG1 phase, G0/G1 phase, S phase, and G2/M phase were determined by calculation using macCycle (Phoenix Flow Systems).

β-catenin [3] = assay: Western blot of β-catenin degrading activity; format: cell-based, human
Method: Western-blot analysis was used to investigate effects on the expression of oncogene products, ErbB2, c-Myc, and Cyclin D1, whose activity is enhanced in a variety of cancer cells, and to investigate the activity of degrading β-catenin, which plays an important role in the initial stages of carcinogenesis to the formation and development of tumors.
(§4) Western-blot analysis was performed in the following manner:
(§5) After HCT116 cells were treated with each test compound, plate-adhered cells were recovered along with cells suspended in supernatants, centrifuged, and pelleted. The cells were then lysed with a lysis solution (40 mM Tris-HCl, 1% Triton X-100, 2 mM MgCl2) supplemented with 200-μM phenylmethanesulfonyl fluoride (PMSF), 500-μM benzamidine, and 1-μg/mL leupeptin. After the mixture was allowed to stand on ice for 30 minutes, it was centrifuged for 10 minutes at 4° C. and 10000×g, and supernatants were recovered. To the resultant supernatant was added equimolarly 2× sample buffer (0.1 M Tris-HCl (pH 6.8), 4% SDS, 20% glycerol, and 12% β-mercaptoethanol), and the mixture was shaken for 3 minutes at 4° C., then heated to 95° C. for 4 minutes, and then stored at −20° C. until use. The cell lysates were phoresed on 8% SDS-PAGE, transferred to a Hybond-P membrane (Amersham Biosciences), and made to react with various monoclonal antibodies described below.
(§6) Monoclonal antibodies: anti-actin antibody (A2066, Sigma Aldrich), anti-β-catenin antibody (6101 53, BD-transduction Laboratories), anti-p53 antibody (FL393: sc-6243HRP), anti-cyclin D1 antibody (M-20: sc-718), anti-c-Myc antibody (9E10: sc-40), anti-k-Ras-2B antibody (C-19: sc-521), and anti-c-ErbB2 antibody (A0485, DAKO Cytomation).

[4] = system: melanoma and breast cancer cells; details: Non-Patent Document 2; cited from earlier work
p53 = assay: Western blot of p53 gene product expression; format: cell-based, human; details: FIG. 11
Method: as §4, §5, §6
Curcumin is known to have activity in degrading p53 gene products. Degradation, genetic expression reduction, instability, or other deficiencies of the tumor suppressor gene p53 gene products, result in disadvantageous conditions as concerns cell malignancy and tendency to become cancerous.

colon cancer cells = details: Non-Patent Document 1; cited from earlier work
β-catenin [5] = details: Non-Patent Document 1; cited from earlier work
[6] = cited from earlier work

Compound | IC50 (DLD-1 cells [1]) | IC50 (HCT116 cells) | IC50 (SW620 cells) | growth inhibitory activity relative to 5-FU, CPT11 and CDDP (colon-cancer cells) | concentration arresting the cell cycle at the G2/M phase (DLD-1 cells [2]; DLD-1 cells, flow cytometry) | concentration at which β-catenin degrading activity is displayed (β-catenin [3]; FIG. 9) | concentration at which β-catenin degrading activity is displayed (β-catenin [3]; FIG. 9, listed as BDMPP) | efficacy relative to curcumin [4] | sub-G1 fraction (apoptosis-induced cell death) (DLD-1 cells [2]; curcumin (20 μM in method)) | transient drop in expression of p53 6 to 12 hours after administration (p53) | concentration inhibiting the growth of colon cancer cells (colon cancer cells) | concentration degrading β-catenin (β-catenin [5]) | water-solubility [6]
COc1ccc(C=CC(=O)C=Cc2ccc(OC)c(OC)c2)cc1OC [GO-035, 1,5-Bis(3,4-dimethoxyphenyl)-penta-1,4-dien-3-one, reference compound] | 2 µM | 2.5 µM | 3.5 µM | much stronger | 5 µM | 5.0 µM | 5 µM | 1.3 to 2.1 times | – | – | – | – | –
COc1cc(/C=C/C(=O)CC(=O)/C=C/c2ccc(O)c(OC)c2)ccc1O [curcumin, (1E,6E)-1,7-bis(4-hydroxy-3-methoxyphenyl)-1,6-heptadiene-3,5-dione, reference compound] | 8 µM | 8 µM | 10 µM | – | – | 20.0 µM | – | – | not substantially observed | transient drop | 20 µM | 15 µM | poor
